Results as given in US5091299A, “An enzyme electrode for use in organic solvents” (priority 1987, dated 1992).
Several values for one entry are separate records, joined by “and”; a condition that tells them apart may be missing. Equal entries are not always repeated.

Legend:
[1] = tested on: Polyphenol oxidase (tyrosinase); assay: Electrode specificity, response of the enzyme electrode to ten phenols; assay type: biochemical; conditions: phenol 100 μM, single electrode, chloroform
[2] = tested on: Polyphenol oxidase (tyrosinase); assay: Storage stability of the enzyme electrode, response to p-cresol; conditions: p-cresol 200 μM
[3] = tested on: Polyphenol oxidase (tyrosinase); assay: Calibration of the polyphenol oxidase enzyme electrode with p-cresol in chloroform; conditions: after addition of p-cresol, -275 mV vs SCE
[4] = tested on: Polyphenol oxidase (tyrosinase); assay: Operational stability of the enzyme electrode, sixteen consecutive p-cresol assays; conditions: p-cresol 100 μM
[5] = room temp. (20° C.), stored dry
[6] = room temp. (20° C.), stored in CHCl3

In the case of `Oc1ccc(Cl)cc1` [4-chlorophenol], the Electrode response [1] is reported as 3.1 μA.
Work on `Cc1ccc(O)c(O)c1` [4-methylcatechol] yielded an Electrode response [1] of 6.7 μA.
`Oc1ccccc1O` [catechol] was tested, and the Electrode response [1] was 8.6 μA.
`Cc1cccc(O)c1` [m-cresol] showed an Electrode response [1] of 4.7 μA.
In the case of `O=Cc1cccc(O)c1` [m-hydroxy-benzaldehyde], the Electrode response [1] is reported as 0.0 μA and the “whether the electrode responded” value [1] is reported as “responded to all the phenols tested except”.
In the case of `Cc1ccccc1O` [o-cresol], the Electrode response [1] is reported as 0.0 μA and the “whether the electrode responded” value [1] is reported as “responded to all the phenols tested except”.
With `Nc1ccc(O)cc1` [p-aminophenol] the Electrode response [1] was 2.4 μA.
In the case of `Cc1ccc(O)cc1` [p-cresol], the Electrode response [1] is reported as 5.6 μA, the Initial response ([2]; 5° C., stored dry) is reported as 4.3 μA and 3.7 μA and the “Response after 3 days” value ([2]; 5° C., stored dry) is reported as 4.4 μA and 4.5 μA. For the same compound, the “Response after 48 days” value ([2]; 5° C., stored dry) was 4.7 μA and 3.5 μA, the Initial response ([2]; 5° C., stored in CHCl3) was 4.8 μA and 3.8 μA and the “Response after 3 days” value ([2]; 5° C., stored in CHCl3) was 8.1 μA and 9.5 μA. For the same compound, the “Response after 48 days” value ([2]; 5° C., stored in CHCl3) was 10.0 μA and 7.6 μA, the decrease in response ([2]; electrodes stored at 5° C.) was “no significant decrease” and the “average loss of activity (of the response)” value ([2]; electrodes stored at room temperature, after three days) was 30%. For the same compound, the Initial response [2, 5] was 5.2 μA and 4.8 μA, the “Response after 3 days” value [2, 5] was 6.8 μA and 5.4 μA and the “Response after 48 days” value [2, 5] was 3.6 μA and 2.8 μA. For the same compound, the Initial response [2, 6] was 4.0 μA and 4.2 μA, the “Response after 3 days” value [2, 6] was 7.0 μA and 7.2 μA and the “Response after 48 days” value [2, 6] was 5.5 μA and 6.5 μA. The “time for the current increase to reach a steady value” [3] was 3 to 5 min, the “Electrode response after the first three assays” value [4] was 4.0 μA and the “Electrode response, first assay” value ([4]; start of series of sixteen assays) was 1.9 μA. The “Electrode response over the next eleven assays” value ([4]; started to fall after assay fourteen) was “remained stable”.
`O=Cc1ccc(O)cc1` [p-hydroxy-benzaldehyde] was tested, and the Electrode response [1] was 0.0 μA and the “whether the electrode responded” value [1] was “responded to all the phenols tested except”.
`Oc1ccccc1` [phenol] showed an Electrode response [1] of 6.4 μA.
